Assay results as given in patent US20140371244A1, “METHOD FOR TREATING PROSTATE CANCER BY USE OF PHARMACEUTICAL COMPOSITION CONTAINING A3 ADENOSINE RECEPTOR AGONIST” (priority 2009, published 2014).

How the values were obtained:
PC-3 cells = experiment: Western blot of cell cycle regulation-related proteins and Wnt signaling in PC-3 cells; type: cell-based, human
Protocol: A test was carried out to examine whether the inhibitory effects of thio-Cl-IB-MECA on the proliferation of LNCaP cells and PC-3 cells are attributable to regulation of the Wnt signaling pathway.
Specifically, each type of LNCaP cells and PC-3 cells was diluted with 10% FBS-containing medium to a density of 1.0×10^6 cells per 100 mm culture dish and cultured under the conditions of 37° C. and 5% CO2 for 24 hours, followed by washing twice with PBS. Thio-Cl-IB-MECA was diluted in 10% FBS-containing medium at required concentration, and then 10 ml of the culture medium prepared in the 100 mm culture dish was added thereto and cultured for a given period. The non-adherent cells and adherent cells in the cell medium were collected and washed twice with PBS, after which the cells were suspended in boiling cell lysis buffer and heated at 100° C. for 5 minutes. The cells were cooled and then stored at […], and the stored cells were thawed at 37° C. immediately before use in protein quantification and electrophoresis. Protein quantification was performed using the BCA method, and […] of protein was electrophoresed on 8-12% SDS-polyacrylamide gel at 150 V for 110 minutes. The gel at the desired site was cut and transferred to a PVDF (polyvinylidene fluoride) for 1 hour, and after which it was washed twice with PBST and stirred in blocking buffer at room temperature for 1 hour. Then, the membrane was washed three times with PBST for 5 minutes each time, after which primary antibody was diluted at a ratio of 1:1,000-1:2,000 with 3% skimmed milk/PBST, and it was sealed together with the membrane and incubated with stirring at 4° C. for 12 hours or more. The membrane was washed 2-3 times with PBST for 5 minutes each time, after which HRP-conjugated secondary antibody was diluted at a ratio of 1:1,500-1:2,000 and incubated with the membrane at room temperature for 2-3 hours. The membrane was washed three times with PBST for 5 minutes each time and treated with a Western blot substrate (WESTSAVE Up™), and the produced luminescence was examined using LAS-3000.

[1] = system: human colorectal cancer HCT 116 cells; experiment: Cell cycle analysis (FACS) in HCT 116 cells; type: cell-based; details: 40 μM, 24 and 36 hours
Protocol: Cells were treated with 40 μM of thio-Cl-IB-MECA and cultured for 24 and 36 hours, and the cell cycle of the cells was analyzed by flow cytometer analysis (FACS). Specifically, cells were diluted with 10% FBS-containing medium to a density of 1.0×10^6 cells per 100 mm culture dish and cultured under the conditions of 37° C. and 5% CO2 for 24 hours, followed by washing twice with PBS. Thio-Cl-IB-MECA was diluted in 10% FBS-containing medium to a concentration of 40 μM, and then 10 ml of the culture medium prepared in the 100 mm culture dish was added thereto and cultured for a given time. The non-adherent cells and adherent cells in the cell medium were collected and washed twice with PBS, after which 500 μL of 100% cold methanol was added thereto and the cells were fixed at 4° C. The cells were washed twice with PBS and allowed to stand in RNase A-containing solution for 30 minutes, after which the cells were stained with propidium iodide (PI) buffer for 5 minutes. After removal of the PI buffer, the cells were transferred into a polystyrene round-bottom tube, and the cycle of the cells was analyzed by FACScalibur® flow cytometry.

iNOS = experiment: Expression of iNOS protein and gene (Western blot, RT-PCR) in LPS-stimulated RAW 264.7 cells; type: cell-based, mouse
Protocol: The effects of the inventive composition on the expression of iNOS protein and mRNA were examined by Western blot analysis and RT-PCR. Specifically, RAW 264.7 cells were diluted with 10% FBS-containing medium to a density of 1×10^6 cells per 100 mm culture dish and cultured under the conditions of 37° C. and 5% CO2 for 24 hours, followed by washing twice with PBS. The cells were pretreated with each of 20 μM (the highest concentration showing no cytotoxicity), 10 μM and 5 μM of thio-Cl-IB-MECA in 10% FBS-containing medium, and inflammatory reactions in the cells were induced by LPS (1 μg/ml), followed by culture for 18 hours. […] The cells were thawed at 37° C. immediately before use and used in protein quantification and electrophoresis.
Protein quantification was performed using the BCA method, and […] of the protein was electrophoresed on 8-12% SDS-polyacrylamide gel at 150 V for 110 minutes. […] The membrane was washed 2-3 times with PBST for 5 minutes each time, after which HRP-conjugated secondary antibody was diluted at a ratio of 1:1,500-1:2,000 and incubated with the membrane at room temperature for 2-3 hours. the membrane was washed three times with PBST for 5 minutes each time and treated with a Western blot substrate (WESTSAVE Up™), and the produced luminescence was examined using LAS-3000. […]

SMILES: CNC(=O)[C@H]1S[C@@H](n2cnc3c(NCc4cccc(I)c4)nc(Cl)nc32)[C@H](O)[C@@H]1O [thio-Cl-IB-MECA, 2-chloro-N^6-(3-iodobenzyl)-4′-thioadenosine-5′-N-methyluronamide]
- Wnt signaling pathway, PC-3 (PC-3 cells): inhibited the Wnt signaling pathway
- expression and RB phosphorylation of cyclin D, cyclin A, CDK4, c-myc and PCNA, PC-3 (PC-3 cells): inhibited the expression and RB phosphorylation
- expression of p53 and p27, PC-3 (PC-3 cells): increased the expression
- G1 phase of cell cycle, HCT 116 [1]: an increase in the G1 phase
- expression of iNOS gene (iNOS; RT-PCR, 5, 10 or 20 μM, vs LPS control): inhibited the expression of iNOS gene in a concentration-dependent manner
- expression of iNOS protein (iNOS; Western blot, 5, 10, 20 μM, LPS 1 μg/ml, 18 hours): inhibited the expression of iNOS protein in a concentration-dependent manner
